Laboratory results: ChEMBL document CHEMBL1127727, “Synthesis and structure-activity relationships of novel retinoid X receptor-selective retinoids” (J Med Chem, 1994)

What was measured:
[1] = molecular target: T1, Retinoic acid receptor RXR-alpha (Homo sapiens, UniProt P19793)
T1 sequence (P19793 whole entry): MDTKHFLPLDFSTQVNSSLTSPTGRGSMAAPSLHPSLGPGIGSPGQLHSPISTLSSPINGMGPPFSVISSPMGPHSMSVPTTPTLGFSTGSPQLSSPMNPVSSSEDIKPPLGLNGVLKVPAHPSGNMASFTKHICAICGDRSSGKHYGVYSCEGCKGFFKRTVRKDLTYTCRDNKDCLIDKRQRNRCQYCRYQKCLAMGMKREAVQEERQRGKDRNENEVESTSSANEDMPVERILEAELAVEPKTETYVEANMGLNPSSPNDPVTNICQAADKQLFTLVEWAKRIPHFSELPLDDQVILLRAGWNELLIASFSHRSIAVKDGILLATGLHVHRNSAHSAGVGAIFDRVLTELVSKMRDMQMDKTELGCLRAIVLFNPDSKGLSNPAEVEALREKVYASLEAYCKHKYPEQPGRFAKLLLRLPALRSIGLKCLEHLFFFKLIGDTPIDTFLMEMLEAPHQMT
Description: Effective concentration against retinoid receptor isoform (RXR alpha) expressed in CV-1 cells

[2] = molecular target: T2, Retinoic acid receptor beta (Homo sapiens, UniProt P10826); experiment: Inhibition of [3H]ATRA binding to baculovirus expressed retinoid receptor RAR beta
T2 sequence (P10826 whole entry): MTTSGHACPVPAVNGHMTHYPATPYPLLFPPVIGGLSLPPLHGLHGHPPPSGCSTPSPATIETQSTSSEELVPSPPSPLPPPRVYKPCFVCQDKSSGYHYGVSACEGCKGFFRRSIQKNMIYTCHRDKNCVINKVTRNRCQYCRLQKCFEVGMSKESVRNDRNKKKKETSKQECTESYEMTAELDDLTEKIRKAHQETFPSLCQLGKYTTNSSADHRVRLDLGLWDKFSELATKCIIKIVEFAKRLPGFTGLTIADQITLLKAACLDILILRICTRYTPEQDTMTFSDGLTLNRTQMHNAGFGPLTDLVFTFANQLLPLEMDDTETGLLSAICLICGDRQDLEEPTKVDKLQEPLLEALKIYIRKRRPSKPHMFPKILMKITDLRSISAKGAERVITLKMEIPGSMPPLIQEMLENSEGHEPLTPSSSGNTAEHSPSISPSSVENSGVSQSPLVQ

[3] = molecular target: T3, Retinoic acid receptor RXR-beta (Mus musculus, UniProt P28704); experiment: Effective concentration against retinoid receptor isoform (RXR beta) expressed in CV-1 cells; format: cell-based
T3 sequence (P28704 whole entry): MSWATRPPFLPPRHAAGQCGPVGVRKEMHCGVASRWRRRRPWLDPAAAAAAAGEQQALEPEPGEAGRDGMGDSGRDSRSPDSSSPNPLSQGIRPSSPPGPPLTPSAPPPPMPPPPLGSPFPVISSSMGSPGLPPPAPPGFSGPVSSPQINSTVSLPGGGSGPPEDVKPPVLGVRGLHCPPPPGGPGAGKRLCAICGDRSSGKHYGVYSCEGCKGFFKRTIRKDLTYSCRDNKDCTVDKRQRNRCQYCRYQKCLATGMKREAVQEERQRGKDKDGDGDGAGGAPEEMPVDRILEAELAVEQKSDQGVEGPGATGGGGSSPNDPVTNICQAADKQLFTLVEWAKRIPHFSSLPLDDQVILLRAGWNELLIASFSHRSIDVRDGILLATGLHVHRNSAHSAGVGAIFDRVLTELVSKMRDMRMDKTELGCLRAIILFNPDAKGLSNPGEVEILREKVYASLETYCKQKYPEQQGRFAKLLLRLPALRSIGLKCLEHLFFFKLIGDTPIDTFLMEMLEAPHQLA

[4] = molecular target: T4, Retinoic acid receptor alpha (Homo sapiens, UniProt P10276); experiment: Effective concentration against retinoid receptor isoform (RAR alpha) expressed in CV-1 cells; format: cell-based
T4 sequence (P10276 whole entry): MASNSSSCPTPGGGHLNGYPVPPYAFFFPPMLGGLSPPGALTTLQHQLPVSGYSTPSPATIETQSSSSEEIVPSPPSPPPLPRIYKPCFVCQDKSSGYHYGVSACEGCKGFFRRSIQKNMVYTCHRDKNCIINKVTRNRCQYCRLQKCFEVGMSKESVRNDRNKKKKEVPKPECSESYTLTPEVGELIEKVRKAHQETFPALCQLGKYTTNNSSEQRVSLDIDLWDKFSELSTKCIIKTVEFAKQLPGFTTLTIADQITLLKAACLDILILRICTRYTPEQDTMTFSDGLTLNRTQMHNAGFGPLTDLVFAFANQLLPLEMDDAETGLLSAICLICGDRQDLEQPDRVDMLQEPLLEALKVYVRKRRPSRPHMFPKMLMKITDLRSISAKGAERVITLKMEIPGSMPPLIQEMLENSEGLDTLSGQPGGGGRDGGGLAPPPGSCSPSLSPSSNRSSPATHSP

[5] = molecular target: T5, Retinoic acid receptor gamma (Homo sapiens, UniProt P13631); experiment: Effective concentration against retinoid receptor isoform (RAR gamma) expressed in CV-1 cells; format: cell-based
T5 sequence (P13631 whole entry): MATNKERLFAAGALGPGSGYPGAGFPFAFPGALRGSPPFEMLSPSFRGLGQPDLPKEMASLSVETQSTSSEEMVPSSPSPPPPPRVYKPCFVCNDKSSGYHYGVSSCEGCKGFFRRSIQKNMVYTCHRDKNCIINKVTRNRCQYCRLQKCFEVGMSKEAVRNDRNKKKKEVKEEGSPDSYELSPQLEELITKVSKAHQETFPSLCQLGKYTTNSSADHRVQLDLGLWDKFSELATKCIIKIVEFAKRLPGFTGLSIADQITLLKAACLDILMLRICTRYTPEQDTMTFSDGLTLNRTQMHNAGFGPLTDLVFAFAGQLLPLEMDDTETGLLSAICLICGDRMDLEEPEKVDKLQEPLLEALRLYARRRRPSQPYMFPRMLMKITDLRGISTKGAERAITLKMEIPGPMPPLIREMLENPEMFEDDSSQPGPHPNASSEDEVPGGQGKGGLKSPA

[6] = molecular target: T1, Retinoic acid receptor RXR-alpha; remark: listed apart in the source
Description: Inhibition of [3H]9-cis-RA binding to baculovirus expressed retinoid receptor RXR alpha

[7] = molecular target: T5, Retinoic acid receptor gamma; experiment: Tested for binding affinity against [3H]-ATRA binding to retinoid receptor isoform (RAR gamma) expressed in baculovirus
[8] = molecular target: T4, Retinoic acid receptor alpha; experiment: Inhibition of [3H]-ATRA binding to baculovirus expressed retinoid receptor RAR alpha
[9] = molecular target: T6, Retinoic acid receptor RXR-gamma (Mus musculus, UniProt P28705); experiment: Inhibition of [3H]9-cis-RA binding to baculovirus expressed retinoid receptor RXR gamma
T6 sequence (P28705 whole entry): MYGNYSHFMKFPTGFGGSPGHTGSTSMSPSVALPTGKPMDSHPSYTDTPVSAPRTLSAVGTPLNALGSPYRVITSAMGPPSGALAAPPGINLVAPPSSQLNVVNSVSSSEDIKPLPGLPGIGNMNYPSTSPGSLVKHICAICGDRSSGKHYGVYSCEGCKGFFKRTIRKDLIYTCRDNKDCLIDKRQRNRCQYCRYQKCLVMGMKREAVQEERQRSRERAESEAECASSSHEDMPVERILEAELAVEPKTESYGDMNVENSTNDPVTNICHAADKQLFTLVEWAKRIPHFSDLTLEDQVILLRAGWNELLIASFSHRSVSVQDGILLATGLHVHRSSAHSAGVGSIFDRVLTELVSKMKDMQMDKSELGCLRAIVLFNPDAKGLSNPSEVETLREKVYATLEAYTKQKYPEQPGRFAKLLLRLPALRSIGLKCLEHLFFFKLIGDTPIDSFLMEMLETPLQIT

[10] = molecular target: T2, Retinoic acid receptor beta; experiment: Effective concentration against retinoid receptor isoform (RAR beta) expressed in CV-1 cells; format: cell-based
[11] = molecular target: T6, Retinoic acid receptor RXR-gamma; experiment: Effective concentration against retinoid receptor isoform (RXR gamma) expressed in CV-1 cells; format: cell-based
[12] = molecular target: T3, Retinoic acid receptor RXR-beta; experiment: Inhibition of [3H]9-cis-RA binding to baculovirus expressed retinoid receptor RXR beta

| Structure (SMILES) | EC50 [1] | Kd [2] | EC50 [3] | EC50 [4] | EC50 [5] | Kd [6] | Kd [7] | Kd [8] | Kd [9] | EC50 [10] | EC50 [11] | Kd [12] |
| --- | --- | --- | --- | --- | --- | --- | --- | --- | --- | --- | --- | --- |
| C=C(c1ccc(C(=O)O)cc1)c1cc2c(cc1CC)C(C)(C)CCC2(C)C | 115 nM | > 1000 nM | 145 nM | > 10000 nM | > 10000 nM | 31 nM | > 1000 nM | > 1000 nM | 59 nM | > 10000 nM | 136 nM | 44 nM |
| CC1(C)CCC(C)(C)c2cc(C(=O)c3ccc(C(=O)O)cc3)c(O)cc21 | > 10000 nM | > 1000 nM | > 10000 nM | > 10000 nM | > 10000 nM | 818 nM | > 1000 nM | > 1000 nM | > 1000 nM | > 10000 nM | > 10000 nM | > 1000 nM |
| C=C(c1ccc(C(=O)O)cc1)c1cc2c(cc1O)C(C)(C)CCC2(C)C | 455 nM | > 1000 nM | 202 nM | > 10000 nM | > 10000 nM | 487 nM | > 1000 nM | > 1000 nM | 812 nM | 2240 nM | 558 nM | 822 nM |
| C=C(c1ccc(C(=O)O)cc1)c1ccc2c(c1)C(C)(C)CCC2(C)C | 409 nM | 909 nM | 486 nM | > 10000 nM | 266 nM | 150 nM | 887 nM | 944 nM | 290 nM | 304 nM | 404 nM | 199 nM |
| CCc1cc2c(cc1C(=O)c1ccc(C(=O)O)cc1)C(C)(C)CCC2(C)C | 514 nM | > 1000 nM | 810 nM | > 10000 nM | > 10000 nM | 195 nM | > 1000 nM | > 1000 nM | 424 nM | > 10000 nM | 384 nM | 232 nM |
| CCCc1cc2c(cc1C(=O)c1ccc(C(=O)O)cc1)C(C)(C)CCC2(C)C | > 10000 nM | > 1000 nM | > 10000 nM | > 10000 nM | > 10000 nM | 269 nM | > 1000 nM | > 1000 nM | 704 nM | > 10000 nM | > 10000 nM | 371 nM |
| C=C(c1ccc(C(=O)O)cc1)c1cc2c(cc1C(C)C)C(C)(C)CCC2(C)C | 207 nM | > 1000 nM | 289 nM | > 10000 nM | > 10000 nM | 55 nM | > 1000 nM | > 1000 nM | 142 nM | > 10000 nM | 227 nM | 75 nM |

The remaining lines, values ahead:

| EC50 [1] | Kd [2] | EC50 [3] | EC50 [4] | EC50 [5] | Kd [6] | Kd [7] | Kd [8] | Kd [9] | EC50 [10] | EC50 [11] | Kd [12] | Structure (SMILES) |
| --- | --- | --- | --- | --- | --- | --- | --- | --- | --- | --- | --- | --- |
| > 10000 nM | > 1000 nM | > 10000 nM | > 10000 nM | > 10000 nM | 137 nM | > 1000 nM | > 1000 nM | 332 nM | > 10000 nM | > 10000 nM | 236 nM | C=C(c1ccc(C(=O)O)cc1)c1cc2c(cc1CCC)C(C)(C)CCC2(C)C |
| 52 nM | > 1000 nM | 33 nM | > 10000 nM | 1450 nM | 27 nM | > 1000 nM | > 1000 nM | 44 nM | 436 nM | 36 nM | 44 nM | C=C(c1ccc(C(=O)O)cc1)c1cc2c(cc1Cl)C(C)(C)CCC2(C)C |
| 381 nM | > 1000 nM | 313 nM | > 10000 nM | > 10000 nM | 113 nM | > 1000 nM | > 1000 nM | 309 nM | > 10000 nM | 357 nM | 155 nM | CC(C)c1cc2c(cc1C(=O)c1ccc(C(=O)O)cc1)C(C)(C)CCC2(C)C |
| 332 nM | > 1000 nM | 120 nM | > 10000 nM | > 10000 nM | 105 nM | > 1000 nM | > 1000 nM | 150 nM | > 10000 nM | 261 nM | 150 nM | CC1(C)CCC(C)(C)c2cc(C(=O)c3ccc(C(=O)O)cc3)c(Br)cc21 |
| 294 nM | > 1000 nM | 262 nM | > 10000 nM | > 10000 nM | 130 nM | > 1000 nM | > 1000 nM | 135 nM | > 10000 nM | 225 nM | 110 nM | CC1(C)CCC(C)(C)c2cc(C(=O)c3ccc(C(=O)O)cc3)c(Cl)cc21 |
| 2020 nM | > 1000 nM | 2200 nM | > 10000 nM | > 10000 nM | > 1000 nM | > 1000 nM | > 1000 nM | > 1000 nM | > 10000 nM | 2190 nM | > 1000 nM | COc1cc2c(cc1C(=O)c1ccc(C(=O)O)cc1)C(C)(C)CCC2(C)C |
| 1820 nM | > 1000 nM | 1980 nM | 2860 nM | 1020 nM | 706 nM | > 1000 nM | > 1000 nM | 911 nM | 395 nM | 2250 nM | 902 nM | CC1(C)CCC(C)(C)c2cc(C(=O)c3ccc(C(=O)O)cc3)c(F)cc21 |
